Data taken from ChEMBL document CHEMBL4680155, “One-pot synthesis and molecular docking of some new spiropyranindol-2-one derivatives as immunomodulatory agents and in vitro antimicrobial potential with DNA gyrase inhibitor” (Eur J Med Chem, 2020).
Converted amounts (≈) assume the structure as drawn. The source made the active and inactive calls. No cut-off for these calls is given here.

Key:
Staphylococcus aureus [1] = experiment: Antibacterial activity against Staphylococcus aureus ATCC 29213 assessed as diameter of inhibition zone at 0.5 mg/ml incubated for 24 hrs by agar diffusion method; type: functional; conditions: read-out: DIZ
Enterococcus faecalis [2] = experiment: Antibacterial activity against Enterococcus faecalis ATCC 29212 assessed as diameter of inhibition zone at 0.5 mg/ml incubated for 24 hrs by agar diffusion method; type: functional; conditions: read-out: DIZ
Candida albicans [3] = experiment: Antifungal activity against Candida albicans ATCC 10231 assessed as diameter of inhibition zone at 0.5 mg/ml incubated for 24 hrs by agar diffusion method; type: functional; conditions: for zone of inhibition at 500 µg/mL: read-out: DIZ
Escherichia coli [4] = experiment: Antibacterial activity against Escherichia coli ATCC 25922 assessed as diameter of inhibition zone at 0.5 mg/ml incubated for 24 hrs by agar diffusion method; type: functional; conditions: read-out: DIZ
Salmonella typhimurium [5] = experiment: Antibacterial activity against Salmonella typhi ATCC 6539 assessed as reduction in bacterial growth incubated for 1 day by paper disk diffusion method; type: functional, Salmonella enterica subsp. enterica serovar Typhimurium; conditions: Salmonella enterica, ATCC 6539, 24 h
Enterococcus faecalis [6] = experiment: Antibacterial activity against Enterococcus faecalis ATCC 29212 assessed as reduction in bacterial growth incubated for 1 day by paper disk diffusion method; type: functional; conditions: ATCC 29212, 24 h
Salmonella typhimurium [7] = experiment: Antibacterial activity against Salmonella typhi ATCC 6539 assessed as diameter of inhibition zone at 0.5 mg/ml incubated for 24 hrs by agar diffusion method; type: functional, Salmonella enterica subsp. enterica serovar Typhimurium; conditions: Salmonella enterica, read-out: DIZ
Candida albicans [8] = experiment: Antifungal activity against Candida albicans ATCC 10231 assessed as reduction in bacterial growth incubated for 1 day by paper disk diffusion method; type: functional
Aspergillus brasiliensis [9] = experiment: Antifungal activity against Aspergillus brasiliensis ATCC 16404 assessed as diameter of inhibition zone at 0.5 mg/ml incubated for 72 hrs by agar diffusion method; type: functional; conditions: for zone of inhibition at 500 µg/mL: read-out: DIZ
Aspergillus brasiliensis [10] = experiment: Antifungal activity against Aspergillus brasiliensis ATCC 16404 assessed as reduction in bacterial growth incubated for 3 days by paper disk diffusion method; type: functional
Escherichia coli [11] = experiment: Antibacterial activity against Escherichia coli ATCC 25922 assessed as reduction in bacterial growth incubated for 1 day by paper disk diffusion method; type: functional; conditions: ATCC 25922, 24 h
Staphylococcus aureus [12] = experiment: Antibacterial activity against Staphylococcus aureus ATCC 29213 assessed as reduction in bacterial growth incubated for 1 day by paper disk diffusion method; type: functional; conditions: ATCC 29213, 24 h
Enterococcus faecalis [13] = experiment: Bactericidal activity against Enterococcus faecalis ATCC 29212 incubated for 24 hrs followed by transferring to freshly prepared broth medium and measured after 24 hrs by broth microdilution assay; type: functional; conditions: time 48 hrs
Escherichia coli [14] = experiment: Bactericidal activity against Escherichia coli ATCC 25922 incubated for 24 hrs followed by transferring to freshly prepared broth medium and measured after 24 hrs by broth microdilution assay; type: functional; conditions: time 48 hrs
Staphylococcus aureus [15] = experiment: Bactericidal activity against Staphylococcus aureus ATCC 29213 incubated for 24 hrs followed by transferring to freshly prepared broth medium and measured after 24 hrs by broth microdilution assay; type: functional; conditions: time 48 hrs
Salmonella typhimurium [16] = experiment: Bactericidal activity against Salmonella typhi ATCC 6539 incubated for 24 hrs followed by transferring to freshly prepared broth medium and measured after 24 hrs by broth microdilution assay; type: functional, Salmonella enterica subsp. enterica serovar […]; conditions: Salmonella enterica, time 48 hrs
Escherichia coli [17] = experiment: Bactericidal activity against Escherichia coli ATCC BAA-196 incubated for 24 hrs followed by transferring to freshly prepared broth medium and measured after 24 hrs by broth microdilution assay; type: functional; conditions: time 48 hrs
Escherichia coli [18] = experiment: Antibacterial activity against multidrug resistant Escherichia coli ATCC BAA-196 assessed as diameter of inhibition zone at 0.5 mg/ml incubated for 24 hrs by agar diffusion method; type: functional; conditions: read-out: DIZ
Pseudomonas aeruginosa [19] = experiment: Bactericidal activity against Pseudomonas aeruginosa ATCC BAA-2111 incubated for 24 hrs followed by transferring to freshly prepared broth medium and measured after 24 hrs by broth microdilution assay; type: functional; conditions: time 48 hrs
Staphylococcus aureus [20] = experiment: Antibacterial activity against multidrug resistant Staphylococcus aureus ATCC 43300 assessed as reduction in bacterial growth incubated for 1 day by paper disk diffusion method; type: functional; conditions: ATCC 43300, 24 h
Pseudomonas aeruginosa [21] = experiment: Antibacterial activity against multidrug resistant Pseudomonas aeruginosa ATCC BAA-2111 assessed as reduction in bacterial growth incubated for 1 day by paper disk diffusion method; type: functional; conditions: ATCC BAA-2111, 24 h
Staphylococcus aureus [22] = experiment: Antibacterial activity against multidrug resistant Staphylococcus aureus ATCC 33591 assessed as reduction in bacterial growth incubated for 1 day by paper disk diffusion method; type: functional; conditions: ATCC 33591, 24 h
Staphylococcus aureus [23] = experiment: Antibacterial activity against multidrug resistant Staphylococcus aureus ATCC 43300 assessed as diameter of inhibition zone at 0.5 mg/ml incubated for 24 hrs by agar diffusion method; type: functional; conditions: read-out: DIZ
Staphylococcus aureus [24] = experiment: Bactericidal activity against Staphylococcus aureus ATCC 33591 incubated for 24 hrs followed by transferring to freshly prepared broth medium and measured after 24 hrs by broth microdilution assay; type: functional; conditions: time 48 hrs
Staphylococcus aureus [25] = experiment: Bactericidal activity against Staphylococcus aureus ATCC 43300 incubated for 24 hrs followed by transferring to freshly prepared broth medium and measured after 24 hrs by broth microdilution assay; type: functional; conditions: time 48 hrs
Escherichia coli [26] = experiment: Antibacterial activity against multidrug resistant Escherichia coli ATCC BAA-196 assessed as reduction in bacterial growth incubated for 1 day by paper disk diffusion method; type: functional; conditions: ATCC BAA-196, 24 h
Pseudomonas aeruginosa [27] = experiment: Antibacterial activity against multidrug resistant Pseudomonas aeruginosa ATCC BAA-2111 assessed as diameter of inhibition zone at 0.5 mg/ml incubated for 24 hrs by agar diffusion method; type: functional; conditions: read-out: DIZ
Staphylococcus aureus [28] = experiment: Antibacterial activity against multidrug resistant Staphylococcus aureus ATCC 33591 assessed as diameter of inhibition zone at 0.5 mg/ml incubated for 24 hrs by agar diffusion method; type: functional; conditions: read-out: DIZ

SMILES | zone of inhibition at 500 µg/mL (Staphylococcus aureus [1]) [mm] | zone of inhibition at 500 µg/mL (Enterococcus faecalis [2]) [mm] | zone of inhibition at 500 µg/mL (Candida albicans [3]) [mm] | zone of inhibition at 500 µg/mL (Escherichia coli [4]) [mm] | MIC (Salmonella typhimurium [5]) [µg/mL] | MIC (Enterococcus faecalis [6]) [µg/mL] | zone of inhibition at 500 µg/mL (Salmonella typhimurium [7]) [mm] | MIC (Candida albicans [8]; ATCC 10231, 24 h) [µg/mL] | zone of inhibition at 500 µg/mL (Aspergillus brasiliensis [9]) [mm] | MIC (Aspergillus brasiliensis [10]; ATCC 16404, 72 h, time 3 day) [µg/mL] | MIC (Escherichia coli [11]) [µg/mL] | MIC (Staphylococcus aureus [12]) [µg/mL] | further results
N#CC(C#N)=C1C(=O)Nc2ccc(S(=O)(=O)N3CCCCC3)cc21 | 10 | 17 | 16 | 13 | 143 (≈ 417 µM) | 62.5 (≈ 183 µM) | 12 | 125 (≈ 365 µM) | 16 | 62.5 (≈ 183 µM) | 125 (≈ 365 µM) | 133 (≈ 389 µM) | –
CCOC(=O)C1=C(N)OC(c2ccccc2)=C(C(=O)OCC)C12C(=O)Nc1ccc(S(=O)(=O)N3CCOCC3)cc12 (stereo not drawn) | 17 | 20 | 14 | 16 | 125 (≈ 214 µM) | 31.2 (≈ 53.5 µM) | 13 | 88.3 (≈ 151 µM) | 9 | 133 (≈ 228 µM) | 35.5 (≈ 60.9 µM) | 88.3 (≈ 151 µM) | –
CCOC(=O)C1=C(C)OC(N)=C(C(=O)OCC)C12C(=O)Nc1ccc(S(=O)(=O)N3CCOCC3)cc12 (stereo not drawn) | 14 | 16 | 13 | 18 | 142 (≈ 273 µM) | 62.5 (≈ 120 µM) | 10 | 125 (≈ 240 µM) | 11 | 133 (≈ 256 µM) | 31.2 (≈ 59.9 µM) | 125 (≈ 240 µM) | –
CCOC(=O)C1=C(N)OC(C)=C(C(C)=O)C12C(=O)Nc1ccc(S(=O)(=O)N3CCCCC3)cc12 (stereo not drawn) | 10 | 20 | 13 | 16 | 71.1 (≈ 145 µM) | 31.2 (≈ 63.8 µM) | 15 | 71.1 (≈ 145 µM) | 10 | 143 (≈ 292 µM) | 17.8 (≈ 36.3 µM) | 125 (≈ 255 µM) | –
CN(C)[C@@H]1C(O)=C(C(N)=O)C(=O)[C@@]2(O)C(O)=C3C(=O)c4c(O)cccc4[C@@](C)(O)[C@H]3C[C@@H]12 [TETRACYCLINE] | 25 | 22 | – | 23 | 62.5 (≈ 141 µM) | 62.5 (≈ 141 µM) | 21 | – | – | – | 15.6 (≈ 35.1 µM) | 62.5 (≈ 141 µM) | MBC (Enterococcus faecalis [13]): 37.5 µg/mL (≈ 84.4 µM); diameter of the inhibition zone (DIZ) (Candida albicans [3]): inactive; MBC (Escherichia coli [14]): 18.7 µg/mL (≈ 42.2 µM); MIC (Candida albicans [8]): inactive; diameter of the inhibition zone (DIZ) (Aspergillus brasiliensis [9]): inactive; MBC (Staphylococcus aureus [15]): 87.5 µg/mL (≈ 197 µM); MIC (Aspergillus brasiliensis [10]; time 3.0 day): inactive; MBC (Salmonella typhimurium [16]): 81.2 µg/mL (≈ 183 µM)
CCOC(=O)C1=C(N)OC(c2ccccc2)=C(C(C)=O)C12C(=O)Nc1ccc(S(=O)(=O)N3CCCCC3)cc12 (stereo not drawn) | 18 | 20 | 13 | 20 | 88.3 (≈ 160 µM) | 17.8 (≈ 32.2 µM) | 15 | 62.5 (≈ 113 µM) | 17 | 125 (≈ 227 µM) | 17.8 (≈ 32.2 µM) | 88.3 (≈ 160 µM) | –
CCn1cc(C(=O)O)c(=O)c2cc(F)c(N3CCNCC3)cc21 [NORFLOXACIN] | – | – | – | – | – | – | – | – | – | – | – | – | MBC (Escherichia coli [17]): 3.53 µg/mL (≈ 11.1 µM); zone of inhibition at 500 µg/mL (Escherichia coli [18]): 27 mm; MBC (Pseudomonas aeruginosa [19]): 4.69 µg/mL (≈ 14.7 µM); MIC (Staphylococcus aureus [20]): 1.25 µg/mL (≈ 3.91 µM); MIC (Pseudomonas aeruginosa [21]): 3.13 µg/mL (≈ 9.8 µM); MIC (Staphylococcus aureus [22]): 0.78 µg/mL (≈ 2.44 µM); zone of inhibition at 500 µg/mL (Staphylococcus aureus [23]): 25 mm; MBC (Staphylococcus aureus [24]): 1.56 µg/mL (≈ 4.89 µM); MBC (Staphylococcus aureus [25]): 2.81 µg/mL (≈ 8.8 µM); MIC (Escherichia coli [26]): 1.57 µg/mL (≈ 4.92 µM); zone of inhibition at 500 µg/mL (Pseudomonas aeruginosa [27]): 24 mm; zone of inhibition at 500 µg/mL (Staphylococcus aureus [28]): 26 mm
